Data reported in publication PMC6321019 (International Journal of Molecular Sciences, 2018).
Where a name gives a salt, the structure may show the parent alone.

Experiments:
[1] = target: T1, hemagglutinin (HA)-tagged wild-type human histamine H1 receptor (HA-WT) (Homo sapiens, UniProt P35367); experiment: [3H]mepyramine displacement binding to membranes of CHO cells expressing HA-WT; conditions: van 't Hoff plots (37, 25, 14 °C); ∆Hº vs -T∆Sº
T1 construct: membrane preparations

[2] = target: T2, HA-tagged Lys191 mutant of human histamine H1 receptor to alanine (HA-K191A) (Homo sapiens, UniProt P35367, K191A); experiment: [3H]mepyramine displacement binding to membranes of CHO cells expressing HA-K191A; conditions: HA-K191A vs HA-WT; for reduction of affinity by mutation of Lys191 to alanine (times): 25 °C; for Change in Entropy-Dependent Hydrophobic Binding Forces by the mutation of Lys191 to alanine: -T∆Sº from van 't Hoff plots (37, 25, 14 °C); for Change in Enthalpy-Dependent Electrostatic Binding Forces by the mutation of Lys191 to alanine: ∆Hº from van 't Hoff plots (37, 25, 14 °C)
T2 construct: expressed in transfected cells; host or cells: CHO cells; membrane preparations
T2 sequence (P35367 whole entry K191A): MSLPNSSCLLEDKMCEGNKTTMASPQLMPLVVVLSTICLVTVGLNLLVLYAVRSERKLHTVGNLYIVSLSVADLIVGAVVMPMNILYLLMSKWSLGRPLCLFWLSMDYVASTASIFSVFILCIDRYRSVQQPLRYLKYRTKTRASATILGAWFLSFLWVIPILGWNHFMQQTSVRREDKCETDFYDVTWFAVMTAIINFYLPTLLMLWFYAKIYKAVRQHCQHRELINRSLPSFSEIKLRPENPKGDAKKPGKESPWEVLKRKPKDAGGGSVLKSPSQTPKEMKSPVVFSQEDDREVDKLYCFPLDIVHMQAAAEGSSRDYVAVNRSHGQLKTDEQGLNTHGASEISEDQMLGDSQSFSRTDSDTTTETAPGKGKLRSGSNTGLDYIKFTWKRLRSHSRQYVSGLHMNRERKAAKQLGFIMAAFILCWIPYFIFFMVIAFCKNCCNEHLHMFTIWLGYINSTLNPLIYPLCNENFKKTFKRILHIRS

T1 sequence (P35367 whole entry): as the sequence (P35367 whole entry K191A) above, with A191K counted along it

Row | SMILES | thermodynamic driving force of binding (source of negative ∆Gº) to HA-WT [1] | reduction of affinity by mutation of Lys191 to alanine (times) [2] | Change in Binding Affinity by the mutation of Lys191 to alanine [2] | Change in Entropy-Dependent Hydrophobic Binding Forces by the mutation of Lys191 to alanine [2] | enthalpy-dependent electrostatic binding forces, change by mutation of Lys191 to alanine (in words) ([2]; van 't Hoff plots) | entropy-dependent hydrophobic binding forces, change by mutation of Lys191 to alanine (in words) ([2]; van 't Hoff plots) | Change in Enthalpy-Dependent Electrostatic Binding Forces by the mutation of Lys191 to alanine [2]
1 | O=C(O)COCCN1CCN([C@H](c2ccccc2)c2ccc(Cl)cc2)CC1 [levocetirizine, Levocetirizine dihydrochloride] | caused by both enthalpy (∆Hº) and entropy (-T∆Sº) | approximately 3.6 times | ↓** | ↓* | significantly increased | significantly reduced | ↑*
2 | O=C(O)COCCN1CCN([C@@H](c2ccccc2)c2ccc(Cl)cc2)CC1 [(S)-cetirizine, (S)-cetirizine dihydrochloride] | predominantly achieved by enthalpy (∆Hº) | ~6.2 times | ↓** | ↑** | significantly reduced |  | ↓**
